Experimental data from ChEMBL document CHEMBL4665764, “Synthesis and Biological Evaluation of Celastrol Derivatives as Potential Immunosuppressive Agents” (J Nat Prod, 2020).
The source made the active and inactive calls. The rule behind the calls is not given here.

Experiments:
[1] = Cytotoxicity against BALB/c mouse T cell assessed as reduction in cell viability after 48 hrs by CCK8 assay; format: tissue-based, T cell line; details: BALB/c mouse T cells
[2] = Antiproliferative activity against Con A-induced BALB/c mouse T cell after 48 hrs by CCK8 assay; format: functional, tissue-based, T cell line
[3] = Selectivity index, ratio of CC50 for cytotoxicity against BALB/c mouse T cell to IC50 for antiproliferative activity against Con A-induced BALB/c mouse T cell; parameters: species or system T cell line
[4] = tested on: T cell line; assay: Induction of apoptosis in BALB/c mouse T cell assessed as increase in Bax at >=1 uM by Western blot analysis; format: functional; details: dose microM >=1
[5] = tested on: T cell line; assay: Induction of apoptosis in BALB/c mouse T cell assessed as increase in Bcl2 at >=1 uM by Western blot analysis; format: functional; details: dose microM >=1
[6] = tested on: T cell line; assay: Induction of mitochondrial membrane disruption in BALB/c mouse T cell assessed as increase in cytochrome c release from mitochondria to cytosol at >=1 uM by Western blot analysis; format: functional; details: dose microM >=1
[7] = tested on: T cell line; assay: Induction of apoptosis in BALB/c mouse T cell assessed as assessed as increase in caspase 3 >=1 uM; format: functional, tissue-based; details: dose microM >=1
[8] = tested on: T cell line; assay: Induction of apoptosis in BALB/c mouse T cell assessed as assessed as increase in caspase 9 >=1 uM; format: functional, tissue-based; details: dose microM >=1
[9] = Anti-inflammatory activity in BALB/c mouse T cell assessed as assessed as IL-4 level at 0.01 uM after 48 hrs by ELISA (reference value: 167.8 +/- 9.4 pg/ml); format: functional, T cell line
[10] = Anti-inflammatory activity in BALB/c mouse T cell assessed as assessed as IL-4 level at 0.1 uM after 48 hrs by ELISA (reference value: 167.8 +/- 9.4 pg/ml); format: functional, T cell line
[11] = Anti-inflammatory activity in BALB/c mouse T cell assessed as assessed as IL-4 level at 1 uM after 48 hrs by ELISA (reference value: 167.8 +/- 9.4 pg/ml); format: functional, T cell line
[12] = Anti-inflammatory activity in BALB/c mouse T cell assessed as assessed as TNF-alpha level at 0.01 uM after 48 hrs by ELISA (reference value: 375.8 +/- 19.6 pg/ml); format: functional, T cell line
[13] = Anti-inflammatory activity in BALB/c mouse T cell assessed as assessed as TNF-alpha level at 0.1 uM after 48 hrs by ELISA (reference value: 375.8 +/- 19.6 pg/ml); format: functional, T cell line
[14] = Anti-inflammatory activity in BALB/c mouse T cell assessed as assessed as TNF-alpha level at 1 uM after 48 hrs by ELISA (reference value: 375.8 +/- 19.6 pg/ml); format: functional, T cell line
[15] = Anti-inflammatory activity in BALB/c mouse T cell assessed as assessed as IL-2 level at 0.01 uM after 48 hrs by ELISA (reference value: 152.9 +/- 8.7 pg/ml); format: functional, T cell line
[16] = Anti-inflammatory activity in BALB/c mouse T cell assessed as assessed as IL-2 level at 0.1 uM after 48 hrs by ELISA (reference value: 152.9 +/- 8.7 pg/ml); format: functional, T cell line
[17] = Anti-inflammatory activity in BALB/c mouse T cell assessed as assessed as IL-2 level at 1 uM after 48 hrs by ELISA (reference value: 152.9 +/- 8.7 pg/ml); format: functional, T cell line
[18] = target: Proto-oncogene tyrosine-protein kinase LCK (Mus musculus) (UniProt P06240); assay: Inhibition of LCK phosphorylation in Con-A induced BALB/c mouse T cell by Western blot analysis; format: tissue-based; details: T cell line
[19] = target: T1, Tyrosine-protein kinase ZAP-70 (Mus musculus) (UniProt P43404); assay: Inhibition of ZAP70 phosphorylation in Con-A induced BALB/c mouse T cell by Western blot analysis; format: tissue-based; details: T cell line
T1 sequence (whole entry): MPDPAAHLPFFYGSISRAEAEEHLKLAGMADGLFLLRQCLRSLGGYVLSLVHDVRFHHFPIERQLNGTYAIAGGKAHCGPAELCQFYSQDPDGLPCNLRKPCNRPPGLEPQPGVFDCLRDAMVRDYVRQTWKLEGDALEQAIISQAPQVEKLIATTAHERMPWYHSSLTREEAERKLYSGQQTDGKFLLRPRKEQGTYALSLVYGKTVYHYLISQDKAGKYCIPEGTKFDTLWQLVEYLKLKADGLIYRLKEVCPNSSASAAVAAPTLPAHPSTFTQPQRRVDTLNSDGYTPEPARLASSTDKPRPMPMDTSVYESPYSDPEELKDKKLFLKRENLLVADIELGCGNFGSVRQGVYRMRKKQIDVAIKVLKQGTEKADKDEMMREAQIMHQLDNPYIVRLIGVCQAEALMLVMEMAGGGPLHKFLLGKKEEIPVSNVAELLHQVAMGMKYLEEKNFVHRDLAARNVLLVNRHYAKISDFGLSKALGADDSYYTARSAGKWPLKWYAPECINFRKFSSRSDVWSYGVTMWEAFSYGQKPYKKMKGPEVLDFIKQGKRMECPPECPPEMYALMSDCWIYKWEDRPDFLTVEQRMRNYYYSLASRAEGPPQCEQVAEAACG

[20] = Induction of apoptosis in Con A-induced BALB/c mouse T cell assessed as early apoptotic cells at 0.01 uM after 48 hrs by Annexin V-FITC/propidium iodide staining based FACS assay (reference value: 26.5%); format: functional, T cell line
[21] = Induction of apoptosis in Con A-induced BALB/c mouse T cell assessed as late apoptotic cells at 0.01 uM after 48 hrs by Annexin V-FITC/propidium iodide staining based FACS assay (reference value: 7.3%); format: functional, T cell line
[22] = Induction of apoptosis in Con A-induced BALB/c mouse T cell assessed as necrotic cells at 0.01 uM after 48 hrs by Annexin V-FITC/propidium iodide staining based FACS assay (reference value: 2.9%); format: functional, T cell line
[23] = Induction of apoptosis in Con A-induced BALB/c mouse T cell assessed as viable cells at 0.01 uM after 48 hrs by Annexin V-FITC/propidium iodide staining based FACS assay (reference value: 63.3%); format: functional, T cell line
[24] = Induction of apoptosis in Con A-induced BALB/c mouse T cell assessed as late apoptotic cells at 0.1 uM after 48 hrs by Annexin V-FITC/propidium iodide staining based FACS assay (reference value: 7.3%); format: functional, T cell line
[25] = Induction of apoptosis in Con A-induced BALB/c mouse T cell assessed as necrotic cells at 0.1 uM after 48 hrs by Annexin V-FITC/propidium iodide staining based FACS assay (reference value: 2.9%); format: functional, T cell line
[26] = Induction of apoptosis in Con A-induced BALB/c mouse T cell assessed as viable cells at 0.1 uM after 48 hrs by Annexin V-FITC/propidium iodide staining based FACS assay (reference value: 63.3%); format: functional, T cell line
[27] = Induction of apoptosis in Con A-induced BALB/c mouse T cell assessed as early apoptotic cells at 0.1 uM after 48 hrs by Annexin V-FITC/propidium iodide staining based FACS assay (reference value: 26.5%); format: functional, T cell line
[28] = Induction of apoptosis in Con A-induced BALB/c mouse T cell assessed as early apoptotic cells at 1 uM after 48 hrs by Annexin V-FITC/propidium iodide staining based FACS assay (reference value: 26.5%); format: functional, T cell line
[29] = Induction of apoptosis in Con A-induced BALB/c mouse T cell assessed as late apoptotic cells at 1 uM after 48 hrs by Annexin V-FITC/propidium iodide staining based FACS assay (reference value: 7.3%); format: functional, T cell line
[30] = Induction of apoptosis in Con A-induced BALB/c mouse T cell assessed as necrotic cells at 1 uM after 48 hrs by Annexin V-FITC/propidium iodide staining based FACS assay (reference value: 2.9%); format: functional, T cell line
[31] = Induction of apoptosis in Con A-induced BALB/c mouse T cell assessed as viable cells at 1 uM after 48 hrs by Annexin V-FITC/propidium iodide staining based FACS assay (reference value: 63.3%); format: functional, T cell line

Sequence of Proto-oncogene tyrosine-protein kinase LCK (Mus musculus) (P06240 2-509 limits assumed): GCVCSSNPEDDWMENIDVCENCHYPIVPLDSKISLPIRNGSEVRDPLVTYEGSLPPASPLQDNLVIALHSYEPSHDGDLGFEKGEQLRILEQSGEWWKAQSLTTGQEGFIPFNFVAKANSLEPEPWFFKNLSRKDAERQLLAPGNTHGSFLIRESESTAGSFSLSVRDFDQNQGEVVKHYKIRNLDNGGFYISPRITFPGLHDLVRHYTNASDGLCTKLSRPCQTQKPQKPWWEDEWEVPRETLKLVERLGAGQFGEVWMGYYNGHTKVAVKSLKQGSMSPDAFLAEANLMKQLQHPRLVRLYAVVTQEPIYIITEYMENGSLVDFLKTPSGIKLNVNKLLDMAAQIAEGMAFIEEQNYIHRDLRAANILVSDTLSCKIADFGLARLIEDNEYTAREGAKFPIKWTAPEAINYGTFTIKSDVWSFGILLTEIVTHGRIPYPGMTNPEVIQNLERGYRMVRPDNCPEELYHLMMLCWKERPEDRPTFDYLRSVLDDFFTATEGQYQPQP

inhibition [18]: Dose-dependent effect
inhibition [19]: Dose-dependent effect
Structure (SMILES): CNC(=O)[C@]1(C)CC[C@]2(C)CC[C@]3(C)C4=CC=C5C(=CC(=O)C(O)=C5C)[C@]4(C)CC[C@@]3(C)[C@@H]2C1
CC50 at 48 h [1]: 1200 nM
IC50 [2]: 25 nM
Ratio CC50/IC50 [3]: 47.7
Activity [4]: Active
Activity [5]: Active
Activity [6]: Active
Activity [7]: Active
Activity [8]: Active
Activity [9]: 135.2 pg/mL
Activity [10]: 78.2 pg/mL
Activity [11]: 39.1 pg/mL
Activity [12]: 264.5 pg/mL
Activity [13]: 204.1 pg/mL
Activity [14]: 142.9 pg/mL
Activity [15]: 128.7 pg/mL
Activity [16]: 79.1 pg/mL
Activity [17]: 51.1 pg/mL
Activity [20]: 27.9%
Activity [21]: 7%
Activity [22]: 1.7%
Activity [23]: 63.4%
Activity [24]: 9.5%
Activity [25]: 0.5%
Activity [26]: 46.3%
Activity [27]: 43.6%
Activity [28]: 56%
Activity [29]: 8.5%
Activity [30]: 1%
Activity [31]: 34.5%
